The target in experiment [1] is Delta-type opioid receptor (Rattus norvegicus, UniProt P33533). The experiment in a line: Binding affinity to delta opioid receptor in rat brain membrane. It is filed as cell membranes.
The target of experiment [2] is Kappa-type opioid receptor (Rattus norvegicus, UniProt P34975). As to the kind of experiment: Binding affinity to kappa opioid receptor in rat brain membrane. It is filed as cell membranes.
The subject of experiment [3] is Nucleic Acid. As to the kind of experiment: Binding affinity to poly(dA).poly(dT) duplex DNA assessed as ratio of KA to KB by ESI-MS analysis. It is filed as nucleic-acid assay.
For experiment [4], the system named is Nucleic Acid. As to the kind of experiment: Binding affinity to poly(dA).poly(dT) DNA assessed as change in melting temperature. It is filed as nucleic-acid assay.
Experiment [5] relates to Nucleic Acid. As to the kind of experiment: Binding affinity to poly(A).poly(U) RNA assessed as change in melting temperature. The experiment is classed as nucleic-acid assay.

The structures appear in SMILES notation.

Sequence of Kappa-type opioid receptor (P34975 whole entry): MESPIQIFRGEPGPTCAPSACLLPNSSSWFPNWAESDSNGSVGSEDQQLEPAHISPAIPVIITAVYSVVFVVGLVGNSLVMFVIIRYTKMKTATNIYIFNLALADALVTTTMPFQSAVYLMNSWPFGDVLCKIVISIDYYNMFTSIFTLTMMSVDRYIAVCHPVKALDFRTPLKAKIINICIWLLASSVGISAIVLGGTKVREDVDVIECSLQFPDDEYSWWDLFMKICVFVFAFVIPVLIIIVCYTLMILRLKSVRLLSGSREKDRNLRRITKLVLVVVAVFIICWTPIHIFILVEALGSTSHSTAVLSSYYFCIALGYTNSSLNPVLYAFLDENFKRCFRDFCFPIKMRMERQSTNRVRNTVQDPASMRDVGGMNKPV
Sequence of Delta-type opioid receptor (P33533 whole entry): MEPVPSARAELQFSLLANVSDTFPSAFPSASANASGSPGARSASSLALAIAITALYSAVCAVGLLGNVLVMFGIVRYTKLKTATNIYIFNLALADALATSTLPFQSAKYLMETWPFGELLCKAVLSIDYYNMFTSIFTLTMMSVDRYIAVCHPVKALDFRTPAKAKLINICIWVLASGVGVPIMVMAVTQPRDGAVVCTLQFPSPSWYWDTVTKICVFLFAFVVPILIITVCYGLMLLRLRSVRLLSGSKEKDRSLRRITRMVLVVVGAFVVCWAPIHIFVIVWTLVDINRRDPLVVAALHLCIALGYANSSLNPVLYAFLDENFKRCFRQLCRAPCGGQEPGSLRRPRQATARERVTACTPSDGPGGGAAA

Usually Ki stands for a dissociation constant, usually derived from enzyme kinetics or from competition with a known ligand. Read a high Ki as lower affinity. `CN1CC[C@]23c4c5ccc(O)c4O[C@H]2c2[nH]c4ccccc4c2C[C@@]3(O)[C@H]1C5` [OXYMORPHINDOLE]: the Ki in experiment [1] amounted to 0.8 nM; in experiment [2], 2170 nM. On to `Cn1cc(NC(=O)c2cc(NC(=O)c3cc(NC=O)cn3C)cn2C)cc1C(=O)NCCC(=N)N`, for which, in experiment [3], the Ratio turned out to be 4.4. One may read the ΔTm as the change in melting temperature against a reference sample. For `COc1cc2cc3c4cc(OC)c(OC)cc4cc[n+]3c(C)c2cc1OC`, the ΔTm in experiment [4] was 18 °C.

With `N=C(N)c1ccc(/N=N/Nc2ccc(C(=N)N)cc2)cc1`, the Ratio in experiment [3] came to 0.32.

On to `Oc1ccc2c3c1O[C@H]1c4[nH]c5ccccc5c4C[C@@]4(O)[C@@H](C2)N(CC2CC2)CC[C@]314` [NALTRINDOLE], for which, in experiment [2], the affinity corresponds to a Ki of 30 nM.

`CCOc1ccc(-c2nc3cc(-c4nc5cc(N6CCN(C)CC6)ccc5[nH]4)ccc3[nH]2)cc1`: the Ratio in experiment [3] was found to be 3.7. As to `Cn1cc(NC(=O)c2cc(NC(=O)CNC(=N)N)cn2C)cc1C(=O)NCCC(=N)N`, the Ratio in experiment [3] is 0.28.

Consider `CC[n+]1c(-c2ccccc2)c2cc(N)ccc2c2ccc(N)cc21`, for which the ΔTm in experiment [5] was determined as 17 °C. Regarding `CN1CCN(c2ccc3[nH]c(-c4ccc5[nH]c(-c6ccc(O)cc6)nc5c4)nc3c2)CC1`, in experiment [3], the Ratio was 2.4. For `O=C1c2c(O)ccc(O)c2C(=O)c2c(NCCNCCO)ccc(NCCNCCO)c21`, the shift in melting temperature (ΔTm) in experiment [4] is 23 °C.

In the case of `COc1cccc2c1C(=O)c1c(O)c3c(c(O)c1C2=O)C[C@@](O)(C(=O)CO)C[C@@H]3O[C@H]1C[C@H](N)[C@H](O)[C@H](C)O1`, in experiment [4], the ΔTm amounted to 13 °C.

Source of the values: ChEMBL document CHEMBL1152837, “Ligand binding to nucleic acids and proteins: Does selectivity increase with strength?” (Eur J Med Chem, 2008).
